One block for each molecule: values may come before it.
Tests used:
Dopamine receptor [1] = molecular target: Dopamine receptor
Description: Compound was tested in vitro for its ability to displace [3H]spiroperidol from labeled dopamine receptors of corpus striatum

Rattus norvegicus [2] = assay: Compound was tested in vivo for its ability to antagonize the stereotypy in rats induced by d-amphetamine sulfate 5 hr later of the treatment; value ranges from 0.1-0.032; format: functional
Rattus norvegicus [3] = assay: Compound was tested in vivo for its ability to antagonize the stereotypy in rats induced by d-amphetamine sulfate 1 hr later of the treatment; value ranges from 0.1-0.32; format: functional
Dopamine receptor [4] = molecular target: Dopamine receptor; remark: listed apart in the source
Description: Ability to displace [3H]spiroperidol from labeled Dopamine receptor of corpus striatum

Rattus norvegicus [5] = assay: Compound was tested in vivo for its ability to antagonize the stereotypy in rats induced by d-amphetamine sulfate 1 hr later of the treatment; value ranges from 0.03-0.1; format: functional
Rattus norvegicus [6] = assay: Compound was tested in vivo for its ability to antagonize the stereotypy in rats induced by d-amphetamine sulfate 24 hr later of the treatment; value ranges from 0.32-1.0; format: functional
Rattus norvegicus [7] = assay: Compound was tested in vivo for its ability to antagonize the stereotypy in rats induced by d-amphetamine sulfate 5 h later of the treatment; value ranges from 0.32-1.0; format: functional
Dopamine receptor [8] = assay: Compound was tested in vitro for its ability to displace [3H]spiroperidol from labeled Dopamine receptor of corpus striatum; format: functional

Compound: Cl.O=C1CCCCN1CCCCN1CC[C@@H]2C(C1)c1cc(F)ccc1N2c1ccc(F)cc1 (some centres not stated)
IC50 (Dopamine receptor [1]): 6.2 nM | ED50 (Rattus norvegicus [2]): 0.032 mg/kg

Compound: Cl.N#CCCCN1CC[C@@H]2C(C1)c1cc(F)ccc1N2c1ccc(F)cc1 (some centres not stated)
ED50 (Rattus norvegicus [3]): 0.1 mg/kg

Compound: Cl.NCCCCN1CC[C@@H]2C(C1)c1cc(F)ccc1N2c1ccc(F)cc1 (some centres not stated)
IC50 (Dopamine receptor [4]): 28 nM

Compound: Cl.O=C1c2ccccc2C(=O)N1CCCCN1CC[C@@H]2C(C1)c1cc(F)ccc1N2c1ccc(F)cc1 (some centres not stated)
IC50 (Dopamine receptor [1]): 27 nM

Compound: CC(C(=O)CN1CC[C@@H]2C(C1)c1cc(F)ccc1N2c1ccc(F)cc1)c1ncco1.Cl (some centres not stated)
IC50 (Dopamine receptor [4]): 10 nM

Compound: Cl.O=c1oc2ccccc2n1CCCCN1CC[C@@H]2C(C1)c1cc(F)ccc1N2c1ccc(F)cc1 (some centres not stated)
ED50 (Rattus norvegicus [7]): 0.32 mg/kg | IC50 (Dopamine receptor [1]): 28 nM

Compound: CC(=O)NCCCCCCCN1CC[C@@H]2C(C1)c1cc(F)ccc1N2c1ccc(F)cc1.Cl (some centres not stated)
IC50 (Dopamine receptor [8]): 9 nM

More lines, main results first:

IC50 (Dopamine receptor [4]): 9 nM
Compound: CC(=O)NCCCCCN1CC[C@@H]2C(C1)c1cc(F)ccc1N2c1ccc(F)cc1.Cl (some centres not stated)

IC50 (Dopamine receptor [4]): 11 nM
Compound: CCOC(=O)NCCCCN1CC[C@@H]2C(C1)c1cc(F)ccc1N2c1ccc(F)cc1.Cl (some centres not stated)

IC50 (Dopamine receptor [4]): 8 nM
Compound: CC(=O)NCCCCCCN1CC[C@@H]2C(C1)c1cc(F)ccc1N2c1ccc(F)cc1.Cl (some centres not stated)

IC50 (Dopamine receptor [4]): 16 nM
Compound: CC(=O)NCCN1CC[C@@H]2C(C1)c1cc(F)ccc1N2c1ccc(F)cc1.Cl (some centres not stated)

IC50 (Dopamine receptor [4]): 10 nM
Compound: CC(=O)NCCCN1CC[C@@H]2C(C1)c1cc(F)ccc1N2c1ccc(F)cc1.Cl (some centres not stated)
ED50 (Rattus norvegicus [5]): 0.03 mg/kg | ED50 (Rattus norvegicus [6]): 0.32 mg/kg

IC50 (Dopamine receptor [4]): 15 nM
Compound: CC(=O)NCCCCN1CC[C@@H]2C(C1)c1cc(F)ccc1N2c1ccc(F)cc1.Cl (some centres not stated)
